According to the NIST ThermoML archive (doi:10.1021/je100300s):

Test: xn = mol fraction of the nth substance listed
Details: 101 kPa, Liquid

CC(O)CN (centres undefined) [1-amino-2-propanol] + O
Details	mass density [kg/m3]	viscosity [mPa·s]
298.15 K, x1 = 0.05	999.9	2.11
298.15 K, x1 = 0.07	1000.35	2.696
298.15 K, x1 = 0.0986	1002.43	3.902
298.15 K, x1 = 0.1993	1004.57	9.7
298.15 K, x1 = 0.3003	999.91	15.54
298.15 K, x1 = 0.3955	992.94	22.19
298.15 K, x1 = 0.4929	985.82	26.76
298.15 K, x1 = 0.5995	978.02	29.01
298.15 K, x1 = 0.7002	971.66	29.99
298.15 K, x1 = 0.8006	965.96	30.4
298.15 K, x1 = 0.8992	961.08	28.55
298.15 K, x1 = 1	956.51	26.68
303.15 K, x1 = 0.05	997.07	1.856
303.15 K, x1 = 0.07	998.1	2.282
303.15 K, x1 = 0.0986	999.83	3.248
303.15 K, x1 = 0.1993	1001.03	7.671
303.15 K, x1 = 0.3003	996.08	12.04
303.15 K, x1 = 0.3955	989.08	16.82
303.15 K, x1 = 0.4929	981.92	19.5
303.15 K, x1 = 0.5995	974.2	21.38
303.15 K, x1 = 0.7002	967.74	22.78
303.15 K, x1 = 0.8006	962.01	22.97
303.15 K, x1 = 0.8992	957.12	22.19
303.15 K, x1 = 1	952.52	20.31
313.15 K, x1 = 0.05	992.68	1.431
313.15 K, x1 = 0.07	993.09	1.785
313.15 K, x1 = 0.0986	994.25	2.359
313.15 K, x1 = 0.1993	993.72	5.102
313.15 K, x1 = 0.3003	988.29	7.551
313.15 K, x1 = 0.3955	981.19	9.95
313.15 K, x1 = 0.4929	973.92	11.79
313.15 K, x1 = 0.5995	966.3	12.85
313.15 K, x1 = 0.7002	959.83	13.14
313.15 K, x1 = 0.8006	954.01	13.56
313.15 K, x1 = 0.8992	949.12	12.83
313.15 K, x1 = 1	944.42	12.51
323.15 K, x1 = 0.05	987.66	1.136
323.15 K, x1 = 0.07	987.41	1.393
323.15 K, x1 = 0.0986	988.2	1.561
323.15 K, x1 = 0.1993	986.18	3.582
323.15 K, x1 = 0.3003	980.32	5.59
323.15 K, x1 = 0.3955	973.13	6.649
323.15 K, x1 = 0.4929	965.84	7.64
323.15 K, x1 = 0.5995	958.38	7.994
323.15 K, x1 = 0.7002	951.77	8.473
323.15 K, x1 = 0.8006	945.87	8.748
323.15 K, x1 = 0.8992	940.96	8.041
323.15 K, x1 = 1	936.19	7.543
333.15 K, x1 = 0.05	982.03	0.929
333.15 K, x1 = 0.07	981.49	1.118
333.15 K, x1 = 0.0986	981.57	1.222
333.15 K, x1 = 0.1993	978.5	2.627
333.15 K, x1 = 0.3003	972.15	3.944
333.15 K, x1 = 0.3955	964.88	4.988
333.15 K, x1 = 0.4929	957.68	5.701
333.15 K, x1 = 0.5995	950.15	6.163
333.15 K, x1 = 0.7002	943.53	5.753
333.15 K, x1 = 0.8006	937.62	6.023
333.15 K, x1 = 0.8992	932.66	5.483
333.15 K, x1 = 1	927.84	5.22
343.15 K, x1 = 0.05	975.62	0.775
343.15 K, x1 = 0.07	974.99	0.922
343.15 K, x1 = 0.0986	973.44	0.993
343.15 K, x1 = 0.1993	970.55	2.088
343.15 K, x1 = 0.3003	963.77	2.904
343.15 K, x1 = 0.3955	956.45	3.619
343.15 K, x1 = 0.4929	949.25	4.075
343.15 K, x1 = 0.5995	941.71	4.371
343.15 K, x1 = 0.7002	935.09	4.565
343.15 K, x1 = 0.8006	929.19	4.467
343.15 K, x1 = 0.8992	924.2	3.927
343.15 K, x1 = 1	919.37	3.77
